For data set [1], the system named is LDL-r promoter. The data set is described as follows: LDL-r promoter luciferase reporter assay in HepG2 cells. The data set is classed as cell-based. To be noted: Homo sapiens; HepG2 cells stably transfected with LDL-r promoter-luciferase construct, 24 hours incubation, 2% lipoprotein-deficient serum; read-out: EC50 induction of luciferase activity. The method, then: HepG2 cells, stably transfected with a construct comprising the LDL-r promoter and the luciferase reporter gene, were seeded at 50.000 cells/well in 96 well plates. After 1 day, cells were incubated with compounds for 24 hours in RPMI medium containing 2% of lipoprotein-deficient serum. Compounds were tested from […]. Cell lysates were prepared and the luciferase activity was measured by the luciferase assay system (Promega). Induction of luciferase activity was calculated taking untreated cells as control. The ED50 of each compounds was determined compared to the ED50 of an internal standard.

Each structure is given as a SMILES string. Counter-ions that a name gives are not always drawn.

`CS(=O)(=O)Nc1ccc(-c2ccc(C(=O)NCCCCN3CCC(c4ccc5c(c4OCCO)CCCC5)CC3)cc2)cc1` [Example 12, 4′-Methanesulfonylamino-biphenyl-4-carboxylic acid (4-{4-[1-(2-hydroxy-ethoxy)-5,6,7,8-tetrahydro-naphthalen-2-yl]-piperidin-1-yl}-butyl)-amide]: the melting point stood at 216 °C. Also, the concentration for a half-maximal effect (EC50) in data set [1] is 5 nM.
In turn, `O=C(NCCCCN1CCC(c2ccc3c(c2OCCO)CCCC3)CC1)c1sc(-c2ccc(C(F)(F)F)cc2)nc1CO` [Example 3, 4-Hydroxymethyl-2-(4-trifluoromethyl-phenyl)-thiazole-5-carboxylic acid (4-{4-[1-(2-hydroxy-ethoxy)-5,6,7,8-tetrahydro-naphthalen-2-yl]-piperidin-1-yl}-butyl)-amide] came in with a melting point of 157 to 159 °C.
On to `Cc1nc(-c2ccc(C#N)cc2)sc1C(=O)NCCCCN1CCC(c2ccc3c(c2OCCO)CCCC3)CC1` (as salt: hydrochloride) [Example 7, 2-(4-Cyano-phenyl)-4-methyl-thiazole-5-carboxylic acid (4-{4-[1-(2-hydroxy-ethoxy)-5,6,7,8-tetrahydro-naphthalen-2-yl]-piperidin-1-yl}-butyl)-amide, hydrochloride], for which the melting point stood at 188 °C.
For `Cc1nc(-c2ccc(Cl)cc2Cl)sc1C(=O)NCCCCN1CCC(c2ccc3c(c2OCCO)CCCC3)CC1` [Example 8, 2-(2,4-dichloro-phenyl)-4-methyl-thiazole-5-carboxylic acid (4-{4-[1-(2-hydroxy-ethoxy)-5,6,7,8-tetrahydro-naphthalen-2-yl]-piperidin-1-yl}-butyl)-amide], the 50% effective concentration (EC50) in data set [1] amounted to 13 nM.

The term EC50 denotes the concentration giving half of the maximal effect. The melting point is the temperature, or range, at which the solid turns liquid.

For the origin of these results see patent publication US20060122432A1, “Aryl piperidine derivatives and use thereof to reduce elevated levels of ldl-cholesterol” (priority 2002, published 2006).
